According to ChEMBL document CHEMBL1240450, “Design, synthesis and biological evaluation of novel quinazoline derivatives as potential antitumor agents: molecular docking study” (Eur J Med Chem, 2010):
≈ marks a conversion by molar mass, not a printed value.

Legend:
[1] = test system: MCF7; test: Antitumor activity against human MCF7 cells after 48 hrs by Sulphorhodamine-B assay; settings: MCF7, 48 h
[2] = test system: HeLa; test: Antitumor activity against human HeLa cells after 48 hrs by Sulphorhodamine-B assay
[3] = test system: HepG2; test: Antitumor activity against human HepG2 cells after 48 hrs by Sulphorhodamine-B assay; settings: HepG2, 48 h

Structure (SMILES)	IC50 [1]	IC50 [2]	IC50 [3]
Cc1ccc(-c2nc(Sc3ncccc3[N+](=O)[O-])c3cc(Cl)ccc3n2)cc1	3.56 µg/mL (≈ 8.71 µM)	5.39 µg/mL (≈ 13.2 µM)	5.59 µg/mL (≈ 13.7 µM)
Cc1ccc(-c2nc(SCC#N)c3cc(Cl)ccc3n2)cc1	3.35 µg/mL (≈ 10.3 µM)	3.76 µg/mL (≈ 11.5 µM)	4.37 µg/mL (≈ 13.4 µM)
Cc1ccc(-c2nc(SCCO)c3cc(Cl)ccc3n2)cc1	3.76 µg/mL (≈ 11.4 µM)	9.25 µg/mL (≈ 28 µM)	9.04 µg/mL (≈ 27.3 µM)
Cc1ccc(-c2nc(N)c3cc(Cl)ccc3n2)cc1	3.76 µg/mL (≈ 13.9 µM)	3.56 µg/mL (≈ 13.2 µM)	14.5 µg/mL (≈ 53.8 µM)
Cc1ccc(NC(=O)CSc2nc(-c3ccc(C)cc3)nc3ccc(Cl)cc23)cc1	5.79 µg/mL (≈ 13.3 µM)	12.3 µg/mL (≈ 28.3 µM)	18.8 µg/mL (≈ 43.3 µM)
Cc1ccc(-c2nc(NO)c3cc(Cl)ccc3n2)cc1	6.81 µg/mL (≈ 23.8 µM)	12.7 µg/mL (≈ 44.4 µM)	23.1 µg/mL (≈ 80.8 µM)
Cc1ccc(-c2nc(SCC(=O)Nc3ccc(F)cc3)c3cc(Cl)ccc3n2)cc1	14.7 µg/mL (≈ 33.6 µM)	10.5 µg/mL (≈ 24 µM)	18.4 µg/mL (≈ 42 µM)
COc1cccc2c1C(=O)c1c(O)c3c(c(O)c1C2=O)C[C@@](O)(C(=O)CO)C[C@@H]3O[C@H]1C[C@H](N)[C@H](O)[C@H](C)O1 [DOXORUBICIN]	3.76 µg/mL (≈ 6.92 µM)	3.64 µg/mL (≈ 6.7 µM)	4.57 µg/mL (≈ 8.41 µM)
Cc1ccc(C(=O)Nc2ccc(Cl)cc2C(N)=O)cc1	5.39 µg/mL (≈ 18.7 µM)	8.23 µg/mL (≈ 28.5 µM)	21 µg/mL (≈ 72.7 µM)
Cc1ccc(-c2nc3ccc(Cl)cc3c(=O)n2C)cc1	3.35 µg/mL (≈ 11.8 µM)	4.37 µg/mL (≈ 15.3 µM)	4.17 µg/mL (≈ 14.6 µM)
Cc1ccc(-c2nc(SCC(=O)Nc3ccccc3)c3cc(Cl)ccc3n2)cc1	4.78 µg/mL (≈ 11.4 µM)	11.7 µg/mL (≈ 27.9 µM)	14.3 µg/mL (≈ 34.1 µM)
CCOc1ccc(NC(=O)CSc2nc(-c3ccc(C)cc3)nc3ccc(Cl)cc23)cc1	15.8 µg/mL (≈ 34.1 µM)	10.1 µg/mL (≈ 21.8 µM)	5.99 µg/mL (≈ 12.9 µM)
Cc1ccc(-c2nc(S(=O)(=O)Cc3ccccc3)c3cc(Cl)ccc3n2)cc1	3.96 µg/mL (≈ 9.68 µM)	7.01 µg/mL (≈ 17.1 µM)	7.21 µg/mL (≈ 17.6 µM)
Cc1ccc(-c2nc(NC(=O)c3ccccc3)c3cc(Cl)ccc3n2)cc1	16.1 µg/mL (≈ 43.1 µM)	16.2 µg/mL (≈ 43.3 µM)	17.5 µg/mL (≈ 46.8 µM)
Cc1ccc(-c2nc3ccc(Cl)cc3c(=S)[nH]2)cc1	3.35 µg/mL (≈ 11.7 µM)	4.57 µg/mL (≈ 15.9 µM)	7.01 µg/mL (≈ 24.4 µM)
Cc1ccc(-c2nc(SCC(N)=O)c3cc(Cl)ccc3n2)cc1	5.59 µg/mL (≈ 16.3 µM)	4.98 µg/mL (≈ 14.5 µM)	9.45 µg/mL (≈ 27.5 µM)
Cc1ccc(-c2nc3ccc(Cl)cc3c(=O)n2N)cc1	5.39 µg/mL (≈ 18.9 µM)	12.1 µg/mL (≈ 42.3 µM)	18.4 µg/mL (≈ 64.4 µM)
Cc1ccc(-c2nc3ccc(Cl)cc3c(=S)n2N)cc1	9.25 µg/mL (≈ 30.6 µM)	14 µg/mL (≈ 46.4 µM)	17 µg/mL (≈ 56.3 µM)
Cc1ccc(-c2nc(SCc3ccccc3)c3cc(Cl)ccc3n2)cc1	9.66 µg/mL (≈ 25.6 µM)	11.3 µg/mL (≈ 30 µM)	18.4 µg/mL (≈ 48.8 µM)
Cc1ccc(-c2nc(NN)c3cc(Cl)ccc3n2)cc1	3.76 µg/mL (≈ 13.2 µM)	3.98 µg/mL (≈ 14 µM)	4.17 µg/mL (≈ 14.6 µM)
Cc1ccc(-c2nc3ccc(Cl)cc3c(=S)o2)cc1	5.18 µg/mL (≈ 18 µM)	13.3 µg/mL (≈ 46.2 µM)	11.1 µg/mL (≈ 38.6 µM)
Cc1ccc(-c2nc(NOC(=O)c3ccccc3)c3cc(Cl)ccc3n2)cc1	5.59 µg/mL (≈ 14.3 µM)	5.18 µg/mL (≈ 13.3 µM)	12.1 µg/mL (≈ 31 µM)
Cc1ccc(-c2nc3ccc(Cl)cc3c(=O)o2)cc1	10.5 µg/mL (≈ 38.6 µM)	8.23 µg/mL (≈ 30.3 µM)	22.5 µg/mL (≈ 82.8 µM)
Cc1ccc(C(=O)Nc2ccc(Cl)cc2C(=O)O)cc1	14.7 µg/mL (≈ 50.7 µM)	18.9 µg/mL (≈ 65.2 µM)	15.9 µg/mL (≈ 55.1 µM)
CSc1nc(-c2ccc(C)cc2)nc2ccc(Cl)cc12	8.64 µg/mL (≈ 28.7 µM)	14.7 µg/mL (≈ 48.9 µM)	13.3 µg/mL (≈ 44.2 µM)
C=CCSc1nc(-c2ccc(C)cc2)nc2ccc(Cl)cc12	8.03 µg/mL (≈ 24.6 µM)	9.66 µg/mL (≈ 29.6 µM)	23.9 µg/mL (≈ 73.1 µM)
Cc1ccc(C(=O)Nc2ccc(Cl)cc2C(=S)NN)cc1	3.35 µg/mL (≈ 10.5 µM)	4.98 µg/mL (≈ 15.6 µM)	5.59 µg/mL (≈ 17.5 µM)
Cc1ccc(-c2nc3ccc(Cl)cc3c(=O)[nH]2)cc1	4.98 µg/mL (≈ 18.4 µM)	10.1 µg/mL (≈ 37.3 µM)	9.86 µg/mL (≈ 36.4 µM)
